Experiments:
[1] = system: MDA-MB-231; experiment: Cytotoxicity against human MDA-MB-231 cells assessed as inhibition of cell growth incubated for 72 hrs by SRB assay; format: functional
[2] = system: NUGC-3; experiment: Cytotoxicity against human NUGC3 cells assessed as inhibition of cell growth incubated for 72 hrs by SRB assay; format: functional
[3] = system: PC-3; experiment: Cytotoxicity against human PC3 cells assessed as inhibition of cell growth incubated for 72 hrs by SRB assay; format: functional
[4] = system: NCI-H23; experiment: Cytotoxicity against human NCI-H23 cells assessed as inhibition of cell growth incubated for 72 hrs by SRB assay; format: functional
[5] = system: HCT-15; experiment: Cytotoxicity against human HCT15 cells assessed as inhibition of cell growth incubated for 72 hrs by SRB assay; format: functional
[6] = system: ACHN; experiment: Cytotoxicity against human ACHN cells assessed as inhibition of cell growth incubated for 72 hrs by SRB assay; format: functional
[7] = biological target: DNA topoisomerase 2-alpha (Homo sapiens) (UniProt P11388); experiment: Inhibition of human topoisomerase-2 alpha assessed as reduction in conversion of super coiled plasmid DNA to relaxed DNA at 100 uM using supercoiled pBR322 DNA as substrate after 30 mins by ethidium bromide staining based agarose gel electrophoresis method relative to control
DNA topoisomerase 2-alpha (Homo sapiens), sequence (P11388 whole entry): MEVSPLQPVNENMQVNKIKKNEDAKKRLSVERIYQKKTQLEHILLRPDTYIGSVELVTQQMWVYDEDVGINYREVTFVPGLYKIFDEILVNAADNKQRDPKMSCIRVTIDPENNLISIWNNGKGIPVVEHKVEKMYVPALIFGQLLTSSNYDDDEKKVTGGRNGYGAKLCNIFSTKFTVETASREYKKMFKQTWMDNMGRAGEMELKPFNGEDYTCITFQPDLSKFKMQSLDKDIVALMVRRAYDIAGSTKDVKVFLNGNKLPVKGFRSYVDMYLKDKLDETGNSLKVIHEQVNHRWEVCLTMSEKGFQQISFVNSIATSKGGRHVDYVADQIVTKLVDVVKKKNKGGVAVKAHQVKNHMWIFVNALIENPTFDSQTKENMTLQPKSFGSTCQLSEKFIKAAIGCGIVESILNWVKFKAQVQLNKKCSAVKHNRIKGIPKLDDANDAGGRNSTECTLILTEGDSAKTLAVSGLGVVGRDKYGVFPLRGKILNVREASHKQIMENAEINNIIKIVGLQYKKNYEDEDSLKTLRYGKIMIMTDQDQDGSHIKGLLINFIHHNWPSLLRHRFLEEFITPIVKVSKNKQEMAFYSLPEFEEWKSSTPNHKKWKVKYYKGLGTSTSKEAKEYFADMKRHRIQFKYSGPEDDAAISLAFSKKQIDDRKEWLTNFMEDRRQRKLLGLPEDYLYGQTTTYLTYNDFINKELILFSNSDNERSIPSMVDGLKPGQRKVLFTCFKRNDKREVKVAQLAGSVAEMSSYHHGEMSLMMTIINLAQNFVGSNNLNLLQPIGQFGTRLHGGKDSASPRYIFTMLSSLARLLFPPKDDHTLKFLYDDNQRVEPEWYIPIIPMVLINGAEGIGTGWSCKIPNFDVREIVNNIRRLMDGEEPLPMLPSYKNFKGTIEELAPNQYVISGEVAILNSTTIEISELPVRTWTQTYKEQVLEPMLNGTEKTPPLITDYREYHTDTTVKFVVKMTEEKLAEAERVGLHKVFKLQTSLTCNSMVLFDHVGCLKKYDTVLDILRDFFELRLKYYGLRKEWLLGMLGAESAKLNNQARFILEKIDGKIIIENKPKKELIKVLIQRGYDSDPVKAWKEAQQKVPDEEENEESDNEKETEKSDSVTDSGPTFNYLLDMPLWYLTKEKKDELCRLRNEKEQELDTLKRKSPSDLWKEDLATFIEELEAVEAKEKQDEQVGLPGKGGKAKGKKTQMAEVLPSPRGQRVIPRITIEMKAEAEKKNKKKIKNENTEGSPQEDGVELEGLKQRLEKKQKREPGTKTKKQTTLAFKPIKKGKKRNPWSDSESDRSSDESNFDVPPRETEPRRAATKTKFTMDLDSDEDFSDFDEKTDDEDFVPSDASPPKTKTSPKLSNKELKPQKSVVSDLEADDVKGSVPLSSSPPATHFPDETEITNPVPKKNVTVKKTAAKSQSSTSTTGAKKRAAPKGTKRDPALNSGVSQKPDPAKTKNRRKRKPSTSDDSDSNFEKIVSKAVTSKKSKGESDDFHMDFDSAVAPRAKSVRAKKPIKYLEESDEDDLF

[8] = biological target: DNA topoisomerase 2-alpha (Homo sapiens) (UniProt P11388); experiment: Potency index, ratio of inhibitory activity of etoposide to test compound for inhibition of human topoisomerase-2 alpha at 20 uM using supercoiled pBR322 DNA as substrate after 30 mins by ethidium bromide staining based agarose gel electrophoresis method relative to control
[9] = biological target: DNA topoisomerase 2-alpha (Homo sapiens) (UniProt P11388); experiment: Potency index, ratio of inhibitory activity of etoposide to test compound for inhibition of human topoisomerase-2 alpha at 100 uM using supercoiled pBR322 DNA as substrate after 30 mins by ethidium bromide staining based agarose gel electrophoresis method relative to control
[10] = biological target: DNA topoisomerase 2-alpha (Homo sapiens) (UniProt P11388); experiment: Inhibition of human topoisomerase-2 alpha assessed as reduction in conversion of super coiled plasmid DNA to relaxed DNA at 20 uM using supercoiled pBR322 DNA as substrate after 30 mins by ethidium bromide staining based agarose gel electrophoresis method relative to control

| inhibition [7] [%] | Ratio [8] | Ratio [9] | inhibition [10] [%] | Structure (SMILES) | GI50 ([1]; Homo sapiens, MDA-MB-231, 72 h) [µM] | GI50 ([2]; Homo sapiens, NUGC-3, 72 h) [µM] | GI50 ([3]; Homo sapiens, PC-3, 72 h) [µM] | GI50 ([4]; Homo sapiens, NCI-H23, 72 h) [µM] | GI50 ([5]; Homo sapiens, HCT-15, 72 h) [µM] | GI50 ([6]; Homo sapiens, ACHN, 72 h) [µM] | GI50 [1] [µM] | GI50 [2] [µM] | GI50 [3] [µM] | GI50 [4] [µM] | GI50 [5] [µM] | GI50 [6] [µM] |
| --- | --- | --- | --- | --- | --- | --- | --- | --- | --- | --- | --- | --- | --- | --- | --- | --- |
| – | – | – | – | COc1ccc(-c2cc(-c3ccc(Br)cc3)nc3cnc4ccccc4c23)cc1 | 2.58 | 1.85 | 6.75 | 1.62 | 1.97 | 4.95 | – | – | – | – | – | – |
| – | – | – | – | CCCCCCn1cc(-c2cc(-c3ccc(OC)cc3)c3c(cnc4ccccc43)n2)c2ccccc21 | > 10 | > 10 | > 10 | > 10 | > 10 | > 10 | – | – | – | – | – | – |
| – | – | – | – | COc1ccc(-c2cc(-c3ccc(OC)c4ccccc34)nc3cnc4ccccc4c23)cc1 | > 10 | > 10 | > 10 | > 10 | > 10 | > 10 | – | – | – | – | – | – |
| – | – | – | – | COc1ccc(-c2cc(-c3ccc([N+](=O)[O-])cc3)nc3cnc4ccccc4c23)cc1 [listing 1 of 2 here] | – | – | – | – | – | – | > 10 | > 10 | > 10 | > 10 | > 10 | > 10 |
| – | – | – | – | COc1ccc(-c2cc(-c3ccccc3Br)nc3cnc4ccccc4c23)cc1 | > 10 | > 10 | > 10 | > 10 | > 10 | > 10 | – | – | – | – | – | – |
| – | – | – | – | COc1ccc(-c2cc(-c3ccccc3Cl)nc3cnc4ccccc4c23)cc1 | 3.32 | 3 | 4.46 | 2.55 | 2.15 | 3.27 | – | – | – | – | – | – |
| – | – | – | – | COc1ccc(-c2cc(-c3ccc(C(F)(F)F)cc3C(F)(F)F)nc3cnc4ccccc4c23)cc1 | > 10 | > 10 | > 10 | > 10 | > 10 | > 10 | – | – | – | – | – | – |
| – | – | – | – | COc1ccc(-c2cc(-c3ccc4ccccc4c3)nc3cnc4ccccc4c23)cc1 | > 10 | > 10 | > 10 | > 10 | > 10 | > 10 | – | – | – | – | – | – |
| – | – | – | – | COc1cccc2c1C(=O)c1c(O)c3c(c(O)c1C2=O)C[C@@](O)(C(=O)CO)C[C@@H]3O[C@H]1C[C@H](N)[C@H](O)[C@H](C)O1 [DOXORUBICIN] | 0.068 | 0.086 | 0.076 | 0.09 | 0.077 | 0.08 | – | – | – | – | – | – |
| – | – | – | – | COc1ccc(-c2cc(-c3cccc4ccccc34)nc3cnc4ccccc4c23)cc1 [listing 1 of 2 here] | – | – | – | – | – | – | 1.51 | 1.68 | 1.57 | 1.81 | 1.98 | 2.25 |
| – | – | – | – | COc1ccc(-c2cc(-c3ccc(OC)cc3)c3c(cnc4ccccc43)n2)cc1 | > 10 | > 10 | > 10 | > 10 | > 10 | > 10 | – | – | – | – | – | – |
| 3 | – | – | – | COc1ccc(-c2cc(-c3ccc(Cl)cc3)nc3cnc4ccccc4c23)cc1 | 2.94 | 2.17 | 1.53 | 1.7 | 4.82 | 1.69 | – | – | – | – | – | – |
| – | – | – | – | COc1ccc(-c2cc(-c3ccccc3[N+](=O)[O-])nc3cnc4ccccc4c23)cc1 | > 10 | > 10 | > 10 | > 10 | > 10 | > 10 | – | – | – | – | – | – |
| – | – | – | – | COc1ccc(-c2cc(-c3cccc4ccccc34)nc3cnc4ccccc4c23)cc1 [listing 2 of 2 here] | 2.81 | 2.16 | – | 1.65 | 2.72 | – | – | – | 3.38 | – | – | 5.36 |
| – | – | – | – | CCn1cc(-c2cc(-c3ccc(OC)cc3)c3c(cnc4ccccc43)n2)c2ccccc21 | 3.04 | 3.03 | 6.15 | 2.07 | 4.88 | 5.61 | – | – | – | – | – | – |
| 91.3 | 1.2 | 1.3 | 42.4 | COc1ccc(-c2cc(-c3ccc(N(C)C)cc3)nc3cnc4ccccc4c23)cc1 | 2.3 | 1.95 | 2.98 | 1.72 | 1.86 | 1.98 | – | – | – | – | – | – |
| 0.2 | – | – | – | COc1ccc(-c2cc(-c3cccc(C#N)c3)nc3cnc4ccccc4c23)cc1 | 1.79 | 2.03 | 3.15 | 1.89 | 1.79 | 3.86 | – | – | – | – | – | – |
| – | – | – | – | COc1ccc(-c2cc(-c3ccc([N+](=O)[O-])cc3)nc3cnc4ccccc4c23)cc1 [listing 2 of 2 here] | – | – | – | – | – | – | 3.49 | 2.87 | 3.59 | 2.43 | 4.37 | 3.92 |
| – | – | – | – | COc1ccc(-c2cc(-c3ccccc3)nc3cnc4ccccc4c23)cc1 | 7.28 | 5.83 | 3.07 | 4.02 | 4.38 | 2.13 | – | – | – | – | – | – |
| – | – | – | – | COc1ccc(-c2c(C)c(-c3ccccc3Br)nc3cnc4ccccc4c23)cc1 | > 10 | > 10 | > 10 | > 10 | > 10 | > 10 | – | – | – | – | – | – |
| – | – | – | – | COc1ccc(-c2cc(-c3ccc(C(F)(F)F)cc3)nc3cnc4ccccc4c23)cc1 | > 10 | > 10 | > 10 | > 10 | > 10 | > 10 | – | – | – | – | – | – |
| – | – | – | – | COc1ccc(-c2cc(-c3cccs3)nc3cnc4ccccc4c23)cc1 | 7.69 | 2 | 6.88 | 3.3 | 7.06 | 5.65 | – | – | – | – | – | – |

Source: ChEMBL document CHEMBL4043212, “Design, synthesis and biological evaluation of 1,3-diphenylbenzo[f][1,7]naphthyrdines” (2017)
